Measurements published in ChEMBL document CHEMBL4261632, “Synthesis of five libraries of 6,5-fused heterocycles to establish the importance of the heterocyclic core for antiplasmodial activity” (Bioorg Med Chem, 2018).

Tested on: Plasmodium falciparum; call rule not given here
Test: Antiplasmodial activity against chloroquine-sensitive Plasmodium falciparum NF54
Assay type: functional, organism-based
[1] = Plasmodium falciparum, NF54, read-out: EC50

EC50 [1]	EC50	Structure (SMILES)
5.69 µM		O=C(OCc1ccccc1)c1cc2c(OC3CCNCC3)cccc2s1
6.11 µM		Cc1c(C(=O)NCc2ccccc2)[nH]c2cccc(OC3CCNCC3)c12
	Not Active	Cl.O=C(OCc1cccc2ccccc12)c1nc2c(OC3CCNCC3)cccc2o1
0.9 µM		O=C(NCc1cccc2ccccc12)c1cc2c(OC3CCNCC3)cccc2[nH]1
5.87 µM		O=C(OCCc1ccccc1)c1cc2c(OC3CCNCC3)cccc2s1
3.39 µM		O=C(OCc1ccccc1)c1cc2c(OC3CCNCC3)cccc2[nH]1
3.48 µM		O=C(NCc1ccccc1)c1cc2c(OC3CCNCC3)cccc2s1
6.53 µM		O=C(OCCc1ccccc1)c1cc2c(OC3CCNCC3)cccc2[nH]1
	Not Active	Cl.O=C(NCCc1ccccc1)c1nc2c(OC3CCNCC3)cccc2o1
0.74 µM		Cc1c(C(=O)NCc2cccc3ccccc23)[nH]c2cccc(OC3CCNCC3)c12
3.74 µM		O=C(NCc1ccccc1)c1cc2c(OC3CCNCC3)cccc2[nH]1
1.9 µM		O=C(OCc1cccc2ccccc12)c1cc2c(OC3CCNCC3)cccc2s1
0.83 µM		O=C(OCc1cccc2ccccc12)c1cc2c(OC3CCNCC3)cccc2[nH]1
7.37 µM		Cn1c(C(=O)OCc2cccc3ccccc23)nc2cccc(OC3CCNCC3)c21
1.15 µM		Cn1c(C(=O)NCc2cccc3ccccc23)nc2cccc(OC3CCNCC3)c21
3.4 µM		Cc1c(C(=O)NCCc2ccccc2)[nH]c2cccc(OC3CCNCC3)c12

EC50 [1]	EC50	Structure (SMILES)
	Not Active	Cl.O=C(OCc1ccccc1)c1nc2c(OC3CCNCC3)cccc2o1
0.74 µM		Cc1c(C(=O)OCc2cccc3ccccc23)[nH]c2cccc(OC3CCNCC3)c12
1.96 µM		O=C(NCc1cccc2ccccc12)c1nc2c(OC3CCNCC3)cccc2o1
0.71 µM		O=C(NCc1cccc2ccccc12)c1cc2c(OC3CCNCC3)cccc2s1
	Not Active	Cl.O=C(OCCc1ccccc1)c1nc2c(OC3CCNCC3)cccc2o1
	Not Active	Cl.O=C(NCc1ccccc1)c1nc2c(OC3CCNCC3)cccc2o1
3.9 µM		Cc1c(C(=O)OCCc2ccccc2)[nH]c2cccc(OC3CCNCC3)c12
3.01 µM		O=C(NCCc1ccccc1)c1cc2c(OC3CCNCC3)cccc2s1
8.8 µM		Cn1c(C(=O)NCc2ccccc2)nc2cccc(OC3CCNCC3)c21
13.3 µM		Cn1c(C(=O)OCc2ccccc2)nc2cccc(OC3CCNCC3)c21
8.69 µM		Cn1c(C(=O)NCCc2ccccc2)nc2cccc(OC3CCNCC3)c21
11.1 µM		Cn1c(C(=O)OCCc2ccccc2)nc2cccc(OC3CCNCC3)c21
3.1 µM		O=C(NCCc1ccccc1)c1cc2c(OC3CCNCC3)cccc2[nH]1
0.56 µM		Cc1c(C(=O)OCc2ccccc2)[nH]c2cccc(OC3CCNCC3)c12
0.00941 µM		C[C@H]1[C@H](OC(=O)CCC(=O)O)O[C@@H]2O[C@@]3(C)CC[C@H]4[C@H](C)CC[C@@H]1[C@@]24OO3 [ARTESUNATE]

Structure (SMILES)	EC50 [1]	EC50
CCN(CC)CCCC(C)Nc1ccnc2cc(Cl)ccc12 (configuration not stated) [CHLOROQUINE]	0.013 µM	
